{"source": "patent US5705333A", "about": "“Peptide-based nucleic acid mimics(PENAMS)” (The Regents of The University of California, priority 1994, dated 1998)", "test_system": "dT10", "assay": "Thermal denaturation (UV absorbance melting curve, Tm) of hybrids with complementary oligonucleotide dT10", "format": "binding", "conditions": "for Tm (°C.) Me2 AsO2 Na: 10 mM sodium cacodylate buffer; for Tm (°C.) Nax PO4: phosphate buffer", "excerpt": "Thermal denaturation of an ordered, native structure of a nucleic acid disrupts the base-pair stacking and, as a result, the UV absorbance increases. The change in UV absorbance, known as […], is a measure of base-pairing and base-stacking between the two complementary strands. The UV absorbance profile as a function of temperature is called a melting curve and the midpoint of this curve is defined as the melting temperature, Tm, at which 50% of the double strand is dissociated into its two single strands. Thus, the measurement of UV absorbance melting curves provides qualitative and quantitative structural information about the nucleic acid bound to its complementary ligand. Tm also depends on the concentration of the oligonucleotide and the properties of the solvent (buffer: pH, ionic strength, etc.).\nBinding studies were carried out by hybridizing the isolated PENAM described above to its complementary oligonucleotide \"dT10 \" followed by thermal denaturation and measurement of UV absorbance as a function of temperature. The synthetic oligodeoxynucleotide (ODN) dT10 and its complementary oligodeoxynucleotide dA10 were used as the reference nucleic acids. The samples prepared in phosphate buffer (Nax PO4) can precipitate magnesium phosphate at high temperature during the thermal denaturation cycle. This problem was readily avoided by repeating the experiment in 10 mM sodium cacodylate buffer (Me2 AsO2 Na) instead of the phosphate buffer.", "key": {"[1]": {"conditions": "dT10 + 2KpA10 Km, stoichiometry 1:0:2"}, "[2]": {"conditions": "dT10 + KpA10 Km, stoichiometry 1:0:1"}, "[3]": {"conditions": "dT10 + dA10 + 2KpA10 Km, stoichiometry 1:1:2"}, "[4]": {"conditions": "dT10 + dA10 + KpA10 Km, stoichiometry 1:1:1"}, "[5]": {"conditions": "thermal denaturation, summary of Table 1"}}}
{"substance": "H-Lys-{(D/L)-(AdhAla)10 }-Lys-NH2 [KpA10 Km]", "values": [{"measurement": "Tm (°C.) Me2 AsO2 Na", "setting": "2dT10 + KpA10 Km, stoichiometry 2:0:1", "result": 32.28, "unit": "°C"}, {"measurement": "Tm (°C.) Me2 AsO2 Na", "setting": "[1]", "result": 32.57, "unit": "°C"}, {"measurement": "Tm (°C.) Nax PO4", "setting": "[1]", "result": 30.8, "unit": "°C"}, {"measurement": "Tm (°C.) Me2 AsO2 Na", "setting": "[2]", "result": 31.00, "unit": "°C"}, {"measurement": "Tm (°C.) Nax PO4", "setting": "[2]", "result": 31.26, "unit": "°C"}, {"measurement": "Tm (°C.) Me2 AsO2 Na", "setting": "[3]", "result": 32.26, "unit": "°C"}, {"measurement": "Tm (°C.) Nax PO4", "setting": "[3]", "result": 30.07, "unit": "°C"}, {"measurement": "Tm (°C.) Me2 AsO2 Na", "setting": "[4]", "result": 31.052, "unit": "°C"}, {"measurement": "Tm (°C.) Nax PO4", "setting": "[4]", "result": 31.41, "unit": "°C"}, {"measurement": "Binding to complementary nucleic acid strand", "setting": "[5]", "result": "binds to its complementary nucleic acid strand"}, {"measurement": "Melting temperature compared with reference ODN dT10:dA10", "setting": "[5]", "result": "melt at an even higher temperature than the reference ODN"}]}
